# Reference: publication PMC7460883, “Dual Substrate Specificity of the Rutinosidase from Aspergillus niger and the Role of Its Substrate Tunnel” (International Journal of Molecular Sciences, 2020)
# Target: T1, AnRut (recombinant rutinosidase from Aspergillus niger) (Aspergillus niger, UniProt A0A6B9UJ04)
# T1 construct: vector pPICZalphaA-RUT, secreted as fusion product by Pichia pastoris KM71H; crude culture medium, ca 66 kDa glycosylated (45 kDa deglycosylated), dimer
# T1 sequence (A0A6B9UJ04 20-386): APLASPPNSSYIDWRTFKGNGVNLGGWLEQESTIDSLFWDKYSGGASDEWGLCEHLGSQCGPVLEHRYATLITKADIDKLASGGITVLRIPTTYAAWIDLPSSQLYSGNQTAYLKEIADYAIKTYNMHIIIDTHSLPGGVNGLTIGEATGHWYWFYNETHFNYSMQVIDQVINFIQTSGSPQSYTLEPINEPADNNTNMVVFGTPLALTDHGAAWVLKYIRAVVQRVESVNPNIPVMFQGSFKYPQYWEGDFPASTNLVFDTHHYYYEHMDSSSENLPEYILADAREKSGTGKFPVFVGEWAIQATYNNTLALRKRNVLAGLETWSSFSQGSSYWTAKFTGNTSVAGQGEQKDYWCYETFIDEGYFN
# Experiment: transglycosylation (glycosyl donor), TLC / product isolation
# Assay type: biochemical
# Settings: pH 3.5, 36 °C; crude culture medium with secreted recombinant enzyme; suspended substrate; acceptors 3-9
row,SMILES,"transglycosylation (glycosyl donor), TLC / product isolation"
1,"O=c1c(O[C@@H]2O[C@H](CO)[C@@H](O)[C@H](O)[C@H]2O)c(-c2ccc(O)c(O)c2)oc2cc(O)cc(O)c12 [compound 2, isoquercitrin]","both AnRut activities, i.e., rutinosidase (with rutin donor) and glucosidase (with isoquercitrin donor)"
2,"C[C@@H]1O[C@@H](OC[C@H]2O[C@@H](Oc3c(-c4ccc(O)c(O)c4)oc4cc(O)cc(O)c4c3=O)[C@H](O)[C@@H](O)[C@@H]2O)[C@H](O)[C@H](O)[C@H]1O [compound 1, rutin]","both AnRut activities, i.e., rutinosidase (with rutin donor) and glucosidase (with isoquercitrin donor)"
